Laboratory results as given in patent US12493040B2, “Cancer detection method using sense of smell of nematode” (HIROTSU BIO SCIENCE INC., priority 2013, dated 2025).

System: RNAi-treated eri-1 (mg366) nematodes
Assay: RNAi screening of olfactory receptor genes: chemotaxis assay of RNAi-treated nematodes to odorants
Type: in vivo, Caenorhabditis elegans
Details: repellent or high concentration of attractant
Protocol: The RNAi assay was carried out by performing an RNAi method involving the feeding (feeding RNAi method) of eri-1 (mg366) (19), using an Ahringer library (37).
Nine adult eri-1 mutants were placed on an NGM plate containing isopropyl 1-D-1-thiogalactopyranoside (0.19 g/L), ampicillin (60 mg/L), and Escherichia coli (E. coli), and were then cultured for 4 days. Subsequently, the adult worms were used in a chemotaxis assay. The chemotaxis assay was carried out as previously reported (6, 17). In the chemotaxis assay, the present inventor has used 30 to 50 worms in each experiment in which 1 μl of 10^−3- or 10^−4-diluted odorant (low concentration), or 1 and 5 μl of undiluted odorants (high concentration) were used.
The z score and a control value in each single test from 2SD were calculated in all days (Table 3) or every day. The z score was used as a threshold indicating a great difference (−1.96 and 1.96, P<0.05). […] Accordingly, the present inventor has used the z score±1 (−0.96 and 0.96, P<0.33) as a weaker threshold.

CC(=O)C(C)=O [High Da]
chemotaxis index (Control nematodes): −0.62 ± 0.012 | chemotaxis index (srh-4 RNAi-treated nematodes): −0.81 | chemotaxis index (srh-7 RNAi-treated nematodes): −0.83 | chemotaxis index (srh-8 RNAi-treated nematodes): −0.63 | chemotaxis index (srh-10 RNAi-treated nematodes): 0.20 | chemotaxis index (srh-11 RNAi-treated nematodes): −0.65 | chemotaxis index (srh-15 RNAi-treated nematodes): −0.54 | chemotaxis index (srh-16 RNAi-treated nematodes): −0.65 | chemotaxis index (srh-18 RNAi-treated nematodes): −0.74 | chemotaxis index (srh-19 RNAi-treated nematodes): −0.43 | chemotaxis index (srh-22 RNAi-treated nematodes): −0.74 | chemotaxis index (srh-23 RNAi-treated nematodes): −0.87 | chemotaxis index (srh-24 RNAi-treated nematodes): −0.67 | chemotaxis index (srh-25 RNAi-treated nematodes): −0.22 | chemotaxis index (srh-27 RNAi-treated nematodes): −0.80 | chemotaxis index (srh-28 RNAi-treated nematodes): −0.58 | chemotaxis index (srh-36 RNAi-treated nematodes): −0.46 | chemotaxis index (srh-37 RNAi-treated nematodes): −0.34 | chemotaxis index (srh-39 RNAi-treated nematodes): −0.51 | chemotaxis index (srh-40 RNAi-treated nematodes): −0.46 | chemotaxis index (srh-41 RNAi-treated nematodes): −0.21 | chemotaxis index (srh-44 RNAi-treated nematodes): −0.25 | chemotaxis index (srh-45 RNAi-treated nematodes): −0.47 | chemotaxis index (srh-46 RNAi-treated nematodes): −0.82 | chemotaxis index (srh-48 RNAi-treated nematodes): −0.49 | chemotaxis index (srh-49 RNAi-treated nematodes): −0.62 | chemotaxis index (srh-50 RNAi-treated nematodes): −0.52 | chemotaxis index (srh-51 RNAi-treated nematodes): −0.73 | chemotaxis index (srh-52 RNAi-treated nematodes): −0.78 | chemotaxis index (srh-55 RNAi-treated nematodes): −0.78 | chemotaxis index (srh-59 RNAi-treated nematodes): −0.24 | chemotaxis index (srh-60 RNAi-treated nematodes): −0.64 | chemotaxis index (srh-61 RNAi-treated nematodes): −0.57 | chemotaxis index (srh-67 RNAi-treated nematodes): −0.58 | chemotaxis index (srh-68 RNAi-treated nematodes): −0.49 | chemotaxis index (srh-69 RNAi-treated nematodes): −0.76 | chemotaxis index (srh-70 RNAi-treated nematodes): −0.87 | chemotaxis index (srh-71 RNAi-treated nematodes): −0.38 | chemotaxis index (srh-72 RNAi-treated nematodes): −0.73 | chemotaxis index (srh-74 RNAi-treated nematodes): −0.54 | chemotaxis index (srh-75 RNAi-treated nematodes): −0.42 | chemotaxis index (srh-77 RNAi-treated nematodes): −0.34 | chemotaxis index (srh-79 RNAi-treated nematodes): 0.35 | chemotaxis index (srh-80 RNAi-treated nematodes): −0.48 | chemotaxis index (srh-82 RNAi-treated nematodes): −0.36 | chemotaxis index (srh-83 RNAi-treated nematodes): −0.23 | chemotaxis index (srh-97 RNAi-treated nematodes): −0.42 | chemotaxis index (srh-99 RNAi-treated nematodes): −0.24 | chemotaxis index (srh-100 RNAi-treated nematodes): −0.75 | chemotaxis index (srh-104 RNAi-treated nematodes): −0.39 | chemotaxis index (srh-105 RNAi-treated nematodes): −0.58 | chemotaxis index (srh-109 RNAi-treated nematodes): −0.59 | chemotaxis index (srh-111 RNAi-treated nematodes): −0.35 | chemotaxis index (srh-113 RNAi-treated nematodes): −0.62 | chemotaxis index (srh-115 RNAi-treated nematodes): −0.57 | chemotaxis index (srh-116 RNAi-treated nematodes): −0.36 | chemotaxis index (srh-118 RNAi-treated nematodes): −0.64 | chemotaxis index (srh-119 RNAi-treated nematodes): −0.78 | chemotaxis index (srh-120 RNAi-treated nematodes): −0.66 | chemotaxis index (srh-122 RNAi-treated nematodes): −0.53 | chemotaxis index (srh-123 RNAi-treated nematodes): −0.55 | chemotaxis index (srh-125 RNAi-treated nematodes): −0.59 | chemotaxis index (srh-128 RNAi-treated nematodes): −0.48 | chemotaxis index (srh-129 RNAi-treated nematodes): −0.69 | chemotaxis index (srh-130 RNAi-treated nematodes): −0.37 | chemotaxis index (srh-131 RNAi-treated nematodes): −0.34 | chemotaxis index (srh-132 RNAi-treated nematodes): −0.83 | chemotaxis index (srh-139 RNAi-treated nematodes): −0.42 | chemotaxis index (srh-140 RNAi-treated nematodes): −0.46 | chemotaxis index (srh-141 RNAi-treated nematodes): −0.77 | chemotaxis index (srh-142 RNAi-treated nematodes): −0.49 | chemotaxis index (srh-145 RNAi-treated nematodes): −0.85 | chemotaxis index (srh-148 RNAi-treated nematodes): −0.69 | chemotaxis index (srh-154 RNAi-treated nematodes): −0.65 | chemotaxis index (srh-159 RNAi-treated nematodes): −0.45 | chemotaxis index (srh-165 RNAi-treated nematodes): −0.79 | chemotaxis index (srh-166 RNAi-treated nematodes): −0.83 | chemotaxis index (srh-167 RNAi-treated nematodes): −0.89 | chemotaxis index (srh-169 RNAi-treated nematodes): −0.92 | chemotaxis index (srh-174 RNAi-treated nematodes): −0.69 | chemotaxis index (srh-179 RNAi-treated nematodes): −0.87 | chemotaxis index (srh-182 RNAi-treated nematodes): −0.86 | chemotaxis index (srh-186 RNAi-treated nematodes): −0.80 | chemotaxis index (srh-190 RNAi-treated nematodes): −0.91 | chemotaxis index (srh-193 RNAi-treated nematodes): −0.53 | chemotaxis index (srh-195 RNAi-treated nematodes): −0.80 | chemotaxis index (srh-201 RNAi-treated nematodes): −0.95 | chemotaxis index (srh-203 RNAi-treated nematodes): −0.94 | chemotaxis index (srh-204 RNAi-treated nematodes): −0.89 | chemotaxis index (srh-206 RNAi-treated nematodes): −0.79 | chemotaxis index (srh-207 RNAi-treated nematodes): −0.87 | chemotaxis index (srh-208 RNAi-treated nematodes): −0.76 | chemotaxis index (srh-209 RNAi-treated nematodes): −0.70 | chemotaxis index (srh-210 RNAi-treated nematodes): −0.56 | chemotaxis index (srh-214 RNAi-treated nematodes): −0.60 | chemotaxis index (srh-216 RNAi-treated nematodes): −0.61 | chemotaxis index (srh-217 RNAi-treated nematodes): −0.50 | chemotaxis index (srh-220 RNAi-treated nematodes): −0.42 | chemotaxis index (srh-222 RNAi-treated nematodes): −0.66 | chemotaxis index (srh-223 RNAi-treated nematodes): −0.50
